Key:
MET = MET (Homo sapiens (Human), UniProt P08581); assay: Kinase inhibitory activity, isotopic labeling (γ-33P-ATP); assay type: biochemical; details: compound at 10 μM
ALK = ALK (Homo sapiens (Human), UniProt Q9UM73); assay: as above; assay type: biochemical; details: compound at 10 μM
PDGFRα = PDGFRα (Homo sapiens (Human), UniProt P16234); assay: as above; assay type: biochemical; details: compound at 10 μM
c-KIT = c-KIT (Homo sapiens (Human), UniProt P10721); assay: as above; assay type: biochemical; details: compound at 10 μM
VEGFR2 = VEGFR2 (Homo sapiens (Human), UniProt P35968); assay: as above; assay type: biochemical; details: ATP 90 μM (Km)
Method in brief: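 Radiometric assay: kinase (5-10 mU) incubated in 8 mM MOPS pH 7.0, 0.2 mM EDTA, 10 mM MnCl2 with substrate, 10 mM magnesium acetate, γ-33P-ATP and graded compound concentrations. Reaction was stopped with 3% phosphate, spotted on Filtermat A, washed, and scintillation-counted; IC50 derived from inhibition rates across concentrations.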

BTK = BTK (Homo sapiens (Human), UniProt Q06187); assay: as above; assay type: biochemical; details: compound at 10 μM
FLT3 = FLT3 (Homo sapiens (Human), UniProt P36888); assay: as above; assay type: biochemical; details: compound at 10 μM
c-SRC = c-SRC (Homo sapiens (Human), UniProt P12931); assay: as above; assay type: biochemical; details: compound at 10 μM
EGFR wild type = EGFR wild type (Homo sapiens (Human), UniProt P00533); assay: as above; assay type: biochemical; details: ATP 10 μM (Km)
Description: (§1) The object of this assay was to test the inventive compounds for the kinase inhibitory activity in vitro. In this assay, an isotopic labeling method was used to label the γ phosphate group on ATP. […] Staurosporine was used as a reference molecule (or referred to as a positive control). […] The IC50 value can be obtained by the calculation of the inhibitory rates at a series of different concentrations of the tested compounds.
(§2) To a reaction tube were successively added the buffer solution (8 mM MOPS, pH 7.0, 0.2 mM EDTA, 10 mM MnCl2), the kinase to be tested (5-10 mU) (EGFR/ALK/BTK/c-KIT/c-SRC/MET/PDGFRα/VEGFR2), the substrate for the kinase to be tested (a reference material), 10 mM of the solution of magnesium acetate and γ-^33 P-ATP, and different concentrations of the tested compounds. […] The reaction was terminated with […] of the 3% phosphate buffer solution. 10 μL of the reaction liquid was titrated on the Filtermat A membrane. The membrane was washed with 75 mM of the phosphate solution thrice (5 minutes each time), and then with methanol once, and finally dried. The membrane was subjected to a scintillation counting. The value of the scintillation counting reflected the phosphorylation level of the substrate and therefore could characterize the inhibition of the kinase activity.

EGFR L858R mutant type = EGFR L858R mutant type (Homo sapiens (Human), UniProt P00533, L858R); assay: as above; assay type: biochemical; details: ATP 200 μM (Km)
Description: as §1, §2

[1] = molecular target: EGFR L858R/T790M double mutant type (Homo sapiens (Human), UniProt P00533, L858R/T790M); assay: as above; assay type: biochemical; details: ATP 45 μM (Km)
Description: as §1, §2

[2] = test system: squamous cell carcinoma cell strain A431; assay: In-vitro tumor cell proliferation inhibition, MTT; assay type: cell-based, human; details: 72 hours
Method in brief: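 MTT colorimetric proliferation test: plated cells exposed 72 h to compound dilution series, DMSO 1% solvent control included. A570 gave inhibition relative to drug-free control; IC50 or inhibitory rate from at least three experiments. HCC827 and BT474 grown in RPMI-1640, A431 and SW620 in DMEM, both with 10% FBS.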

[3] = test system: colon cancer cell strain SW480; assay: In-vitro tumor cell proliferation inhibition, MTT; assay type: cell-based, human; details: 72 hours
[4] = test system: acute myelogenous leukemia cell strain MV4-11; assay: In-vitro tumor cell proliferation inhibition, MTT; assay type: cell-based, human; details: 72 hours
[5] = test system: colon cancer cell strain HCT116; assay: In-vitro tumor cell proliferation inhibition, MTT; assay type: cell-based, human; details: 72 hours

Sequence of PDGFRα (P16234 24-1089): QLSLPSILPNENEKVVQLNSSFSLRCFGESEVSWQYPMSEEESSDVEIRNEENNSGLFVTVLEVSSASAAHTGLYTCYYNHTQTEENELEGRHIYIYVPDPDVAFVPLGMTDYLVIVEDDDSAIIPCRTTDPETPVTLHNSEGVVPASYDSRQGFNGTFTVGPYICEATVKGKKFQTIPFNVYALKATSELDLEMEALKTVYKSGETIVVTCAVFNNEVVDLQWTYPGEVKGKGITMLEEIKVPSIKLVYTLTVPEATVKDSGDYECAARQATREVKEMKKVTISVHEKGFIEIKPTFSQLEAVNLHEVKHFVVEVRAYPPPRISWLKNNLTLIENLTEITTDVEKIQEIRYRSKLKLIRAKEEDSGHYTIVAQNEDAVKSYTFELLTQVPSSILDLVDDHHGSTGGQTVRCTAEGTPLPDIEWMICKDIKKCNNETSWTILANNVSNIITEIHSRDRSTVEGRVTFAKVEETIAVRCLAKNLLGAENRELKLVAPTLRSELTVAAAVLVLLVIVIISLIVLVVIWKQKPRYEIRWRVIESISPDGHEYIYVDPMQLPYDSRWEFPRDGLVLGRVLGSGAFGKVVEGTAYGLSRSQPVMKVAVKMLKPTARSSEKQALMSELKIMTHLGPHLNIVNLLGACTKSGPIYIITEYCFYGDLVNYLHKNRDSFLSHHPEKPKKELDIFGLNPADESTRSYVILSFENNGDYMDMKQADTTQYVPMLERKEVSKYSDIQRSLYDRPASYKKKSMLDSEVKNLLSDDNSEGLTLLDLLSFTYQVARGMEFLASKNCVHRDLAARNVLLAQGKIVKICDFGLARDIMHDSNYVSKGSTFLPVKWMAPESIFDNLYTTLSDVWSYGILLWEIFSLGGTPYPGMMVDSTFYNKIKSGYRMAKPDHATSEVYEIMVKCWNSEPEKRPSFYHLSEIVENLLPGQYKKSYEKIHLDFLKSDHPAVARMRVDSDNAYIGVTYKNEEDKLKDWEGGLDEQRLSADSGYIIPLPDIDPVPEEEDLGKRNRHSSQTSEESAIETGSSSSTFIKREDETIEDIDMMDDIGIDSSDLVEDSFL
Sequence of c-KIT (P10721 26-976): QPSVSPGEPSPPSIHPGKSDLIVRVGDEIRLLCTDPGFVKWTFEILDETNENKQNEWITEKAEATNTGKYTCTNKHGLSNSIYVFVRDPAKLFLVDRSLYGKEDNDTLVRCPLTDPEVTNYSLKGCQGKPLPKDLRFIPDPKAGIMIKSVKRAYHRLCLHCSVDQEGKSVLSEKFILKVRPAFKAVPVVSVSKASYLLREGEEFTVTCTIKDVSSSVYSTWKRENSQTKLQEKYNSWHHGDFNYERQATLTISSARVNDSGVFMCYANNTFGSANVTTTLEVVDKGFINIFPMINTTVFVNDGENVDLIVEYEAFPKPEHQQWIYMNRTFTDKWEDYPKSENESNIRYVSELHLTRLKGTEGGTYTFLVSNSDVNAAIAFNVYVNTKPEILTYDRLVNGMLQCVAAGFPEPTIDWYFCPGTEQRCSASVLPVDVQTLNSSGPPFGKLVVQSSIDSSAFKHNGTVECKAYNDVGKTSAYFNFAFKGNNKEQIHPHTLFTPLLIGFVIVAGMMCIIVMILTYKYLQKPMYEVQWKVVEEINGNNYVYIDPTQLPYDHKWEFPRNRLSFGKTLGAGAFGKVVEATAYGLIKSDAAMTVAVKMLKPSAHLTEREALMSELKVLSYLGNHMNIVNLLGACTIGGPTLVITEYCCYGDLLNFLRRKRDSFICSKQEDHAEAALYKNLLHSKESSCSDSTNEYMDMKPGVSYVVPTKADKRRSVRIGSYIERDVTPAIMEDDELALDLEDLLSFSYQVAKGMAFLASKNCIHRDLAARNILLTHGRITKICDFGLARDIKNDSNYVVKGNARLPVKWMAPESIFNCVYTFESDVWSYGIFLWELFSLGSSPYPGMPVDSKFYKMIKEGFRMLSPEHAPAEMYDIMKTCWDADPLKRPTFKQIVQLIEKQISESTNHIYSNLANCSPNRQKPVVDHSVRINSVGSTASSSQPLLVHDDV
Sequence of BTK (Q06187 whole entry): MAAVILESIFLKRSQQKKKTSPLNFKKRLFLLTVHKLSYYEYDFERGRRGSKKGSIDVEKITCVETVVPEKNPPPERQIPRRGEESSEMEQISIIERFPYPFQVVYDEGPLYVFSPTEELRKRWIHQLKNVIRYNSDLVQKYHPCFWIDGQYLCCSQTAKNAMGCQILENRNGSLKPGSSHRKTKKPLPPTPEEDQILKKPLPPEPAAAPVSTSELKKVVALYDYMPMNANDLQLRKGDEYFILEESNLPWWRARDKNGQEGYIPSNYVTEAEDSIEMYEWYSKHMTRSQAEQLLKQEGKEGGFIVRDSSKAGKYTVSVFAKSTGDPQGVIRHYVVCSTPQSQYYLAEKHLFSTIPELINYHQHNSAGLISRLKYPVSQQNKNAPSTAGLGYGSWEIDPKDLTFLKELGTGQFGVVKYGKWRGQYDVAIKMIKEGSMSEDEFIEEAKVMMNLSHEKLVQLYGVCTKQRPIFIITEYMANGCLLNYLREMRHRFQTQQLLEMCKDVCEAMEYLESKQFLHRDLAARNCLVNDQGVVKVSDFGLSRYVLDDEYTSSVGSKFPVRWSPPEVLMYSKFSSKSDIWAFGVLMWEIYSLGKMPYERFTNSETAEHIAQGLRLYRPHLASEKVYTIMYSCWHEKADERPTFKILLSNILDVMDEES
Sequence of EGFR wild type (P00533 25-1210): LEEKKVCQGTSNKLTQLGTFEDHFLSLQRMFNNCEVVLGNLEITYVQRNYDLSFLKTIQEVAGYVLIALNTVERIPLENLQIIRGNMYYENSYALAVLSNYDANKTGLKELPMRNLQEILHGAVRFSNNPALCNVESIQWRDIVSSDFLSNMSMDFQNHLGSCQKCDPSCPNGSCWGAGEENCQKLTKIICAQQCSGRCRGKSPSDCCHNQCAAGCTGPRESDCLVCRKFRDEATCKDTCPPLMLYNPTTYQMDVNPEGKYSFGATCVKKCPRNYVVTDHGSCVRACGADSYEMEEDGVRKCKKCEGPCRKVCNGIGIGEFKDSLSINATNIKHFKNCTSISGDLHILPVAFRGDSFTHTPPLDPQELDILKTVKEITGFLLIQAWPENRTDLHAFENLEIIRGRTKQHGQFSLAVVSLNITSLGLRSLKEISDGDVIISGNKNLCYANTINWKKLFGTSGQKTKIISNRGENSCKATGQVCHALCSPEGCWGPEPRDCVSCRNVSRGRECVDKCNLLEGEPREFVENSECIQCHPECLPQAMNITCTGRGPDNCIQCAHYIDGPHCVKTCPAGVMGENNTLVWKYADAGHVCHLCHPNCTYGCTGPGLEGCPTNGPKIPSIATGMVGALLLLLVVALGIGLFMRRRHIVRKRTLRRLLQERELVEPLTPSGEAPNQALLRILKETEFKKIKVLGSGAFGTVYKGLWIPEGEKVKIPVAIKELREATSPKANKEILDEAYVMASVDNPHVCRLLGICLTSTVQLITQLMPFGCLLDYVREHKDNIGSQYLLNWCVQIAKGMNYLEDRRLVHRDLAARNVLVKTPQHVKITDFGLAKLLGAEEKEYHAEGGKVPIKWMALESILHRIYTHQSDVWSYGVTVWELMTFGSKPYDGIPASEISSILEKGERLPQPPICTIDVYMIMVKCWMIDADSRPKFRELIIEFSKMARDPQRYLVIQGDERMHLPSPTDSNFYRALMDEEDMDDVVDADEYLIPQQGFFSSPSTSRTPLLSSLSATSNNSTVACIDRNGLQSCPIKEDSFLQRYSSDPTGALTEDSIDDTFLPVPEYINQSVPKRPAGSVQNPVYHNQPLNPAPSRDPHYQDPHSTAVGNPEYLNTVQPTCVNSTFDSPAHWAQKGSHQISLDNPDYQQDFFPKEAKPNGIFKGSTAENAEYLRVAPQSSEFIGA
Sequence of EGFR L858R mutant type (P00533 25-1210 L858R): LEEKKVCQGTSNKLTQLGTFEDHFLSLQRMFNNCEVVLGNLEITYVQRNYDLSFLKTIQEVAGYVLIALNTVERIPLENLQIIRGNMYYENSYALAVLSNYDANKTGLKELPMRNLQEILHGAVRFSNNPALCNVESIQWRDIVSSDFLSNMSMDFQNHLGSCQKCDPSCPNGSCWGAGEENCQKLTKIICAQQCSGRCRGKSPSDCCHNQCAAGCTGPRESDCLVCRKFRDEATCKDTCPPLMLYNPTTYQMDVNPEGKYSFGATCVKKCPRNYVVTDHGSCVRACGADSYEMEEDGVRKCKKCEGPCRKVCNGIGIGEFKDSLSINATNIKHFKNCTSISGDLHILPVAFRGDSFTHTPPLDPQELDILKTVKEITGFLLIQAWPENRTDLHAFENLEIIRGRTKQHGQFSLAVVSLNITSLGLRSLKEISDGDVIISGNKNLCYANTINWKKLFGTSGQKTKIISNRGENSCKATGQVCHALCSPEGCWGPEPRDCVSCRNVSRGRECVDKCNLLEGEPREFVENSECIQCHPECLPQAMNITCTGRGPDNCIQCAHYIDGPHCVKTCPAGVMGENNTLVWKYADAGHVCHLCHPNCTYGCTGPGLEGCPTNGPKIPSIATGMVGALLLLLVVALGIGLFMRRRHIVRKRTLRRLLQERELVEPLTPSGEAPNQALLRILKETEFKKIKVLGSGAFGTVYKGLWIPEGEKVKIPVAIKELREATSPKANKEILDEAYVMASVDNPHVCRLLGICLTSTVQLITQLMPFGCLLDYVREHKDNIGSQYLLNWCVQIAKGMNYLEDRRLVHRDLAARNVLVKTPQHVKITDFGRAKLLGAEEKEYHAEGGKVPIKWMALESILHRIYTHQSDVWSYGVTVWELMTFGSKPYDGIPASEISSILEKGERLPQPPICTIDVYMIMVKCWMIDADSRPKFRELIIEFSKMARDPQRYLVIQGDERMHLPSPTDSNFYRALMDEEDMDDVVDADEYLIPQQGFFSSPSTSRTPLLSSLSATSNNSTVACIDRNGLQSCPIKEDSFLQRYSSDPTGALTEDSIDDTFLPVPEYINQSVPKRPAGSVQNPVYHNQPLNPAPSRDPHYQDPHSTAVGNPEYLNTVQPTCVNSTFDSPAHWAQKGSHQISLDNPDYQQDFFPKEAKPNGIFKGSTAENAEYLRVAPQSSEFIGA

SMILES	The kinase activity inhibitory rate (%) by the tested compounds at 10 μM MET (MET) [%]	The kinase activity inhibitory rate (%) by the tested compounds at 10 μM ALK (ALK) [%]	The kinase activity inhibitory rate (%) by the tested compounds at 10 μM PDGFRα (PDGFRα) [%]	The kinase activity inhibitory rate (%) by the tested compounds at 10 μM c-KIT (c-KIT) [%]	IC50 (VEGFR2) [µM]	The kinase activity inhibitory rate (%) by the tested compounds at 10 μM BTK (BTK) [%]	The kinase activity inhibitory rate (%) by the tested compounds at 10 μM FLT3 (FLT3) [%]	The kinase activity inhibitory rate (%) by the tested compounds at 10 μM c-SRC (c-SRC) [%]	IC50 (EGFR wild type) [µM]	IC50 (EGFR L858R mutant type) [µM]	IC50 [1] [µM]	IC50 [2] [µM]	IC50 [3] [µM]	IC50 [4] [µM]	IC50 [5] [µM]
CC(C)n1c(Nc2cccc(C(F)(F)F)c2)nc2cnc(Nc3ccc(N4CCN(C)CC4)cc3)nc21 [Compounds 8-16]	93	17	39	62	> 1	57	45	90	0.003	0.001	0.012	5.88	6.48	4.8	0.766
COc1cccc(Nc2nc3cnc(Nc4ccc(N5CCN(C)CC5)cc4)nc3n2C(C)C)c1 [Compounds 8-17]	52	35	72	89	> 1	100	86	99	0.004	0.001	0.004	8.46	> 10	0.684	0.813
COc1ccc(Nc2nc3cnc(Nc4ccc(N5CCN(C)CC5)cc4)nc3n2C(C)C)cc1 [Compounds 8-18]	7	13	60	76	0.021	56	75	93	0.03	0.005	0.057	6.35	> 10	0.183	6.29
CC(C)n1c(Nc2ccc(NC(=O)Nc3ccc(F)c(Cl)c3)cc2)nc2cnc(Nc3ccc(N4CCN(C)CC4)cc3)nc21 [Compounds 8-21]	99	97	100	101	> 1	92	78	98	0.011	0.005	0.005	5.72	> 10	0.279	0.772
CC(C)n1c(Nc2ccc(C(=O)Nc3cccc(F)c3)cc2)nc2cnc(Nc3ccc(N4CCN(C)CC4)cc3)nc21 [Compounds 8-22]	69	70	43	10	> 1	63	87	98	0.117	0.01	0.087	5.52	> 10	0.283	1.83

From patent publication US9096601B2 (CSPC Zhongqi Pharmaceutical Technology (Shijiazhuang) Co., …, priority 2010, dated 2015)
